Data on 23 compounds can be found in US5807855A, “1-piperazino-1,2-dihydroindene derivatives” (priority 1992, dated 1998).

For data set [1], the target named is DA D1 receptor (Rattus norvegicus, UniProt P18901). As to the kind of experiment: biochemical. The class given is binding. The settings on record: IC50, D1 3H-SCH.
The target in the next data set is T1, DA D2 receptors (Rattus norvegicus, UniProt P61169).
T1 construct: DA D2 receptors in rat striatal membranes; from tissue; host or cells: rat striatal membranes
As to the kind of experiment: Inhibition of 3H-spiperone binding to DA D2 receptors in rat striatal membranes. The conditions noted are these: IC50, D2 3H-Spi.

A further data set concerns the target T2, 5-HT2 receptors (Rattus norvegicus, UniProt P14842).
T2 construct: 5-HT2 receptors in membranes from rat cortex; from tissue; host or cells: membranes from rat cortex
The experiment in a line: Inhibition of 3H-ketanserin binding to 5-HT2 receptors in membranes from rat cortex. The settings on record: Receptor Binding, IC50, 5-HT2 3H-Ket. The procedure:
Receptor binding studies.
5-HT2 receptors. Inhibition of ^3 H-ketanserin binding to 5-HT2 receptors in membranes from rat cortex was determined as described by Hyttel, J. Acta. Pharmacol. Toxicol.

The test system of a further data set is DA uptake. As to the kind of experiment: Inhibition of DA uptake in vitro. The format is biochemical. The procedure:
Inhibition of DA Uptake in Vitro was determined as described by K. P. B.o slashed.ges.o slashed., J. Med. Chem. 1983, 26, 935-947.

Data set [2] concerns DA D1 receptor. The settings on record: 3H-piflutixol; D2 by 3H-spiperone; Drug. Dev. Res. 1986, 7, 35-47; cited from earlier work.
Another data set has as its system D1. The settings on record: 3H-SCH 23390; Drug. Dev. Res. 1988, 15, 389-404; cited from earlier work.
For data set [3] the following is noted: cited from earlier work; for extrapyramidal side effects (in words): at higher D2 occupancies needed to control psychosis.
For data set [4] the following is noted: Psychopharmacology 1985, 86, 303-305; cited from earlier work.
For a further data set, the system named is 5-HT2. The settings on record: cited from earlier work.
[5] abbreviates: rat striatal membranes, 3H-spiperone, read-out: Receptor Binding.
[6] abbreviates: rat striatal membranes, 3H-SCH 23390, read-out: Receptor Binding.

“Also recorded” adds a separate entry of the source. Where two headings read alike, the source gives them in different places.

T1 sequence (P61169 whole entry): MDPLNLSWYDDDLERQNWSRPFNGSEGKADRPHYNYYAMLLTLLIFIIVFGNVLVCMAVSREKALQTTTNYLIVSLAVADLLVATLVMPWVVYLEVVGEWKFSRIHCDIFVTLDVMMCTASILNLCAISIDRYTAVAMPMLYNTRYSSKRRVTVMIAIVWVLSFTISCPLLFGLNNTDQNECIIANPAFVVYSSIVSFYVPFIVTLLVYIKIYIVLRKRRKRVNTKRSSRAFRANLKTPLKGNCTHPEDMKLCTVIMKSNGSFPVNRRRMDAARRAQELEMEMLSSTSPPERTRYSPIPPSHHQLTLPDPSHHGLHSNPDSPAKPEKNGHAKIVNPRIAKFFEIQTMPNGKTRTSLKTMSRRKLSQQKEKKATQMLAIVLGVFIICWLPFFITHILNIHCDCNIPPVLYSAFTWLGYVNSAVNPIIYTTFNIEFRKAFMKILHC
T2 sequence (P14842 whole entry): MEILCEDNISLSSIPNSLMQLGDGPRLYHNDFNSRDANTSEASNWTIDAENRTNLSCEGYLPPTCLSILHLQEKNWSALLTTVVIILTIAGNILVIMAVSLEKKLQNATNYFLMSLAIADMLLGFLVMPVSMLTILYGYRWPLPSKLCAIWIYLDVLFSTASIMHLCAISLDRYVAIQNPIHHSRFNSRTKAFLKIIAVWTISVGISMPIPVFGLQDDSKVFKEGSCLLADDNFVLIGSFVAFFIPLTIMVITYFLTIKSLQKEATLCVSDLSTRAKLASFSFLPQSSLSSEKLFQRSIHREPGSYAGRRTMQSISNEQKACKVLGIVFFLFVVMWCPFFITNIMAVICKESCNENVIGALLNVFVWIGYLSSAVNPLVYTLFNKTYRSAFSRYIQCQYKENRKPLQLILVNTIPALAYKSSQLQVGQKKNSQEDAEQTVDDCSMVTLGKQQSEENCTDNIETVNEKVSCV
DA D1 receptor (Rattus norvegicus, UniProt P18901), sequence (P18901 whole entry): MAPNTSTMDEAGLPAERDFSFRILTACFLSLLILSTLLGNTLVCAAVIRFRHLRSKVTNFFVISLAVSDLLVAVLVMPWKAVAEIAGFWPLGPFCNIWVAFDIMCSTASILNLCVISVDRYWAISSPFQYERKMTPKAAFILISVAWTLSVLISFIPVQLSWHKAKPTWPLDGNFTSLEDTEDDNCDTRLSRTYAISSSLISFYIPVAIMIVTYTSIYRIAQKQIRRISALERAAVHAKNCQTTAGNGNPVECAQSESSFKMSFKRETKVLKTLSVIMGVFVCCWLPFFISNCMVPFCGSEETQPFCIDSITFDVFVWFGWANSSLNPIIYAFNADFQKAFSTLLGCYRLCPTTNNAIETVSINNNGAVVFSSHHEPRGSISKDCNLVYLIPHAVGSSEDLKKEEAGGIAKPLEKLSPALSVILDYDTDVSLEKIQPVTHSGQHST

On to `CN1CCN([C@@H]2C[C@@H](c3ccc(F)cc3)c3ccc(Br)cc32)CC1(C)C` (racemic) [Compound 8, (±)-Trans-4-[6-bromo-3-(4-fluorophenyl)-2,3-dihydro-1H-inden-1-yl]-1,2,2-trimethylpiperazine], for which the IC50 was 1.8 nM at DA D1 receptor [1] (Receptor Binding), 8.6 nM at DA D2 receptors (setting [5]) and 3 nM on 5-HT2 receptors.

For the compound `CN1CCN([C@@H]2C[C@@H](c3ccc(F)cc3)c3cc(Cl)c(Cl)cc32)CC1(C)C` (racemic) [Compound 9, (±)-Trans-4-[5,6-dichloro-3-(4-fluorophenyl)-2,3-dihydro-1H-inden-1-yl]-1,2,2-trimethylpiperazine], the values for the IC50 on DA D1 receptor [1] (setting [6]), on DA D2 receptors (setting [5]) and on 5-HT2 receptors were 18 nM, 44 nM and 5.9 nM, respectively.

Turning to `CN1CCN([C@@H]2C[C@@H](c3ccccc3)c3ccc(Cl)cc32)CC1(C)C` (racemic) [Compound 10, (±)-Trans-4-[6-chloro-3-phenyl-2,3-dihydro-1H-inden-1-yl]-1,2,2-trimethylpiperazine], the IC50 on DA D1 receptor [1] (setting [6]) was 1.6 nM; on DA D2 receptors (Receptor Binding) it was 20 nM; at 5-HT2 receptors it was 3.2 nM; with DA uptake it was 15 nM.

For `CN1CCN([C@@H]2C[C@@H](c3ccccc3F)c3ccc(Cl)cc32)CC1(C)C` (racemic) [Compound 11, (±)-Trans-4-[6-chloro-3-(2-fluorophenyl)-2,3-dihydro-1H-inden-1-yl]-1,2,2-trimethylpiperazine], the IC50 on DA D1 receptor [1] (Receptor Binding) worked out at 4.4 nM; on DA D2 receptors (setting [5]), 36 nM; at 5-HT2 receptors, 21 nM.

On to `CN1CCN([C@@H]2C[C@@H](c3cccc(F)c3)c3ccc(Cl)cc32)CC1(C)C` (racemic) [Compound 12, (±)-Trans-4-[6-chloro-3-(3-fluorophenyl)-2,3-dihydro-1H-inden-1-yl]-1,2,2-trimethylpiperazine], for which the results for the IC50 on DA D1 receptor [1] (Receptor Binding), on DA D2 receptors (setting [5]) and on 5-HT2 receptors were 9.6 nM, 280 nM and 26 nM, respectively.

For the compound `CC1(C)CN([C@@H]2C[C@@H](c3ccsc3)c3ccc(Cl)cc32)CCN1` (racemic) [Compound 13, (±)-Trans-4-[6-chloro-3-(3-thienyl)-2,3-dihydro-1H-inden-1-yl]-2,2-dimethylpiperazine], the figures for the IC50 on DA D1 receptor [1] (Receptor Binding), on DA D2 receptors (setting [5]) and at 5-HT2 receptors were 1.4 nM, 8.2 nM and 1 nM, respectively.

With `CN1CCN([C@@H]2C[C@@H](c3ccsc3)c3ccc(Cl)cc32)CC1(C)C` (racemic) [Compound 14, (±)-Trans-4-[6-chloro-3-(3-thienyl)-2,3-dihydro-1H-inden-1-yl]-1,2,2-trimethylpiperazine], the IC50 on DA D1 receptor [1] (Receptor Binding) is 0.76 nM; at DA D2 receptors (setting [5]), 6.1 nM; on 5-HT2 receptors, 1.7 nM.

As to `CN1CCN([C@@H]2C[C@@H](c3ccc(F)cc3)c3cc(Cl)ccc32)CC1(C)C` (racemic) [Compound 16, (±)-Trans-4-[5-chloro-3-(4-fluorophenyl)-2,3-dihydro-1H-inden-1-yl]-1,2,2-trimethylpiperazine], the IC50 at DA D1 receptor [1] (Receptor Binding) turned out to be 37 nM; on DA D2 receptors (setting [5]), 340 nM; on 5-HT2 receptors, 9.3 nM.

`CN1CCN([C@@H]2C[C@@H](c3ccc(F)cc3)c3cccc(Cl)c32)CC1(C)C` (racemic) [Compound 17, (±)-Trans-4-[7-chloro-3-(4-fluorophenyl)-2,3-dihydro-1H-inden-1-yl]-1,2,2-trimethylpiperazine]: the IC50 on DA D1 receptor [1] (Receptor Binding) stood at 32 nM; at DA D2 receptors (setting [5]) it was 1200 nM; at 5-HT2 receptors, 31 nM.

As to `CCC1(CC)CN([C@@H]2C[C@@H](c3ccc(F)cc3)c3ccc(Cl)cc32)CCN1` (racemic) [Compound 23, (±)-Trans-4-[6-chloro-3-(4-fluorophenyl)-2,3-dihydro-1H-inden-1-yl]-2,2-diethylpiperazine], the values for the IC50 on DA D1 receptor [1] (setting [6]), at DA D2 receptors (setting [5]) and on 5-HT2 receptors were 4.7 nM, 36 nM and 11 nM, respectively.

For the compound `Fc1ccc([C@@H]2C[C@@H](N3CCNC4(CCCCC4)C3)c3cc(Cl)ccc32)cc1` (racemic) [Compound 31, (±)-Trans-4-[6-chloro-3-(4-fluorophenyl)-2,3-dihydro-1H-inden-1-yl]-1,4-diazaspiro[5.5]undecan], the IC50 is 6.4 nM on DA D1 receptor [1] (setting [6]), 75 nM on DA D2 receptors (setting [5]) and 25 nM at 5-HT2 receptors.

Take `CN1CCN([C@@H]2C[C@@H](c3ccc(F)cc3)c3cccc(F)c32)CC1(C)C` (racemic) [Compound 36, (±)-Trans-4-[7-fluoro-3-(4-fluorophenyl)-2,3-dihydro-1H-inden-1-yl]-1,2,2-trimethyl piperazine]: the IC50 came to 3.8 nM at DA D1 receptor [1] (Receptor Binding), 74 nM on DA D2 receptors (setting [5]) and 9.8 nM on 5-HT2 receptors.

Consider `CC1(C)CN([C@@H]2C[C@@H](c3ccc(F)cc3)c3ccc(Cl)cc32)CCN1CCCO` (racemic) [Compound 39, (±)-Trans-4-[6-chloro-3-(4-fluorophenyl)-2,3-dihydro-1H-inden-1-yl]-2,2-dimethyl-1-piperazinepropanol], for which the IC50 was 1.8 nM at DA D1 receptor [1] (setting [6]), 9.8 nM on DA D2 receptors (setting [5]) and 3 nM on 5-HT2 receptors.

With `OCCN1CCN([C@@H]2C[C@@H](c3ccc(F)cc3)c3ccc(C(F)(F)F)cc32)CC1` (racemic) [Tefludazine], the “DA D1 receptor affinity (in words)” value with DA D1 receptor [2] is on record as “substantially lower than the D2 affinity”.

For `CC(C)C1CN([C@@H]2C[C@@H](c3ccc(F)cc3)c3ccc(Cl)cc32)CCN1` (relative stereo) [Compound 19, Trans-4-[6-chloro-3-(4-fluorophenyl)-2,3-dihydro-1H-inden-1-yl]-2-(2-propyl)piperazine], the IC50 at DA D1 receptor [1] (setting [6]) was found to be 2.2 nM; at DA D2 receptors (setting [5]) it was 38 nM; on 5-HT2 receptors, 5.6 nM.

Regarding `CC(C)C1CN([C@@H]2C[C@@H](c3ccc(F)cc3)c3ccc(Cl)cc32)CCN1` (relative stereo) [Compound 20, Trans-4-[6-chloro-3-(4-fluorophenyl)-2,3-dihydro-1H-inden-1-yl]-2-(2-propyl)piperazine], the IC50 on DA D1 receptor [1] (setting [6]) was found to be 6 nM; at DA D2 receptors (setting [5]), 130 nM; on 5-HT2 receptors, 8.8 nM.

As for `CN1CCN([C@@H]2C[C@@H](c3ccc(F)cc3)c3ccc(Cl)cc32)CC1(C)C` (single isomer, unassigned) [+2, (+) Trans-4-[6-chloro-3-(4-fluorophenyl)-2,3-dihydro-1H-inden-1-yl]-1,2,2-trimethylpiperazine], the IC50 was 2000 nM at 5-HT2 receptors and 16 nM in the data set with DA uptake.

In the case of `Fc1ccc(C2CC(N3CCN4CCCCC4C3)c3cc(F)ccc32)cc1` (stereo not drawn) [Compound 33, 2-[6-fluoro-3-(4-fluorophenyl)-2,3-dihydro-1H-inden-1-yl]-octahydropyrido[1,2-a]-pyrazine], the IC50 on DA D1 receptor [1] (setting [6]) was found to be 5.8 nM; at DA D2 receptors (setting [5]), 320 nM; at 5-HT2 receptors, 28 nM.

With `O=C1NCCN1CCN1CCN([C@@H]2C[C@@H](c3ccc(F)cc3)c3ccccc32)CC1` [Irindalone, reference compound], the IC50 at DA D1 receptor [1] (read-out: Receptor Binding) was found to be 890 nM. Moreover, the “D1 affinity (in words)” value with D1 is given as “even lower than the D2 affinity”.

In the case of `O=C(CCCN1CCC(O)(c2ccc(Cl)cc2)CC1)c1ccc(F)cc1` [haloperidol], in data set [3], the “extrapyramidal side effects (in words)” value is listed as “accompanied by extrapyramidal side effects”.

`OCCN1CCN(CCCN2c3ccccc3Sc3ccc(Cl)cc32)CC1` [perphenazine]: the “extrapyramidal side effects (in words)” value in data set [3] is reported as “accompanied by extrapyramidal side effects”.

In the case of `Cc1nc2sccn2c(=O)c1CCN1CCC(=C(c2ccc(F)cc2)c2ccc(F)cc2)CC1` [ritanserin], the “clinical effect (in words)” value in data set [3] (patients) was “shown to be an antidepressant and to improve depressive symptoms of schizophrenia; also recorded: improve the quality of sleep; also recorded: found to relieve neuroleptic-induced parkinsonism”. In addition, the “effect in animal test (in words)” value in [4] is “exert effects in an animal test reminiscent of anxiolytic activity”. Moreover, the “5-HT2 antagonism (in words)” value in the data set with 5-HT2 is “selective 5-HT2 antagonist”.

Turning to `Cc1nc2n(c(=O)c1CCN1CCC(C(=O)c3ccc(F)cc3)CC1)CCS2` [setoperone], the “5-HT2 antagonism (in words)” value in the data set on 5-HT2 is 5-HT2 and moderate dopamine receptor antagonist.
